Data on 76 compounds can be found in publication PMC6792352, “Limited Chemical Structural Diversity Found to Modulate Thyroid Hormone Receptor in the Tox21 Chemical Library” (Environmental Health Perspectives, 2019).

Structures can show the parent of a compound that is named as a salt.

A short description of the series: in vitro. The note with it: rat, gh3-tre-luc cells.

As to `CC(C)CCOCc1ccccc1` [Benzyl 3-methylbutyl ether], where the note is “AC50 (uM) modified / 1000”, the CC50 (usually the concentration at which the toxic effect on the cells reaches its halfway point) at 24 h was above 90 µM.
For `CN(C)C(=O)Nc1ccccc1` [Fenuron], the CC50 at 24 h (AC50 (uM) modified / 1000) was above 90 µM.
Still for that read-out and setting: the result for `C1COCO1` [1,3-Dioxolane] reads above 90 µM; that for `CCCOC(=O)CCCCC(=O)OCCC` [Dipropyl hexanedioate], above 90 µM; that for `CCCCCCOC(=O)CC` [Hexyl propanoate], above 90 µM.
Same read-out and setting: next, `O=C1CN2Cc3c(ccc(Cl)c3Cl)N=C2N1` [Anagrelide hydrochloride]: above 50 µM; `Cc1cc(-n2nc3ccc(Cl)cc3n2)c(O)c(C(C)(C)C)c1` [Bumetrizole]: above 50 µM.
Still for that read-out and setting: next, `Cc1ccc(C)c(O)c1C` [2,3,6-Trimethylphenol]: above 90 µM.
`CCCCCCCCCCCCCCCCCCCCCC(=O)Nc1ccn([C@@H]2O[C@H](CO)[C@@H](O)[C@@H]2O)c(=O)n1` [Enocitabine] registered a CC50 at 24 h (AC50 (uM) modified / 1000) above 50 µM.
In the case of `C[C@@H]1[C@H](O)[C@@H](C)/C=C/C=C/C=C/C=C/C=C/C=C/C=C/[C@H](O[C@@H]2O[C@H](C)[C@@H](O)[C@H](N)[C@@H]2O)C[C@@H]2O[C@](O)(C[C@@H](O)C[C@@H](O)[C@H](O)CC[C@@H](O)C[C@@H](O)CC(=O)O[C@H]1C)C[C@H](O)[C@H]2C(=O)O` [Amphotericin B], it took 32.9 µM to reach half-maximal cytotoxicity (AC50 (uM) modified / 1000) (CC50 at 24 h).
For `CCCCOC(=O)C(=O)OCCCC` [Dibutyl ethanedioate], under “AC50 (uM) modified / 1000”, the CC50 at 24 h was above 90 µM.
For the setting “AC50 (uM) modified / 1000”, `Cc1ccccc1OCC(=O)O` [(2-Methylphenoxy)acetic acid] showed a CC50 at 24 h above 90 µM.
`O=C(CCl)NCO` [2-Chloro-N-(hydroxymethyl)acetamide] gave a CC50 at 24 h (AC50 (uM) modified / 1000, Tox21_110001=Tox21_300964, viability, 1 nM T3 present, 24 h) above 90 µM.
For the compound `O=P(O)(O)OC(Cn1cncn1)(Cn1cncn1)c1ccc(F)cc1F` [Fosfluconazole], the CC50 at 24 h (AC50 (uM) modified / 1000) is above 50 µM.
For the setting “AC50 (uM) modified / 1000”, `O=C(Cn1c(=O)sc2ccc(Cl)cc21)N1CCN(CCO)CC1` [Tiaramide hydrochloride] returned a CC50 at 24 h above 50 µM.
`Cn1c(=O)c2c(ncn2CCO)n(C)c1=O` [Etofylline] yielded a CC50 at 24 h (AC50 (uM) modified / 1000) above 50 µM.
In turn, `CN(Cc1cc(Br)cc(Br)c1N)C1CCCCC1` [Bromhexine hydrochloride] yielded a CC50 at 24 h (AC50 (uM) modified / 1000) of 42.9 µM.
The compound `C=CC(=C)CCCC(C)(C)OC(C)=O` [2-methyl-6-methylideneoct-7-en-2-yl acetate] gave a CC50 at 24 h (AC50 (uM) modified / 1000) above 90 µM.
Regarding `CCOCCOCCOCC` [Diethylene glycol diethyl ether], the CC50 at 24 h (AC50 (uM) modified / 1000) is above 90 µM.
Same read-out and setting: the result for `O=C(O)Cc1cccc(-c2cc(CCCCCCc3ccc(O[C@H]4O[C@H](CO)[C@@H](O)[C@H](O)[C@@H]4O)c(-c4cccc(CC(=O)O)c4)c3)ccc2O[C@H]2O[C@H](CO)[C@@H](O)[C@H](O)[C@@H]2O)c1` [Bimosiamose] reads above 50 µM; that for `CC(C)(C)NCC(O)COc1ccc(NC(=O)NC2CCCCC2)cc1` (stereo not drawn) [Talinolol], above 50 µM.
Under “AC50 (uM) modified / 1000”, `NNC(=O)c1cccc(C(=O)NN)c1` [1,3-Benzenedicarboxylic acid, dihydrazide] registered a CC50 at 24 h above 90 µM.
Turning to `Nc1nc2ccccc2[nH]1` [2-Aminobenzimidazole], the CC50 at 24 h (AC50 (uM) modified / 1000) was above 90 µM.
Consider `C[C@]12CCC(=O)C=C1CC[C@@H]1[C@@H]2CC[C@@]2(C)[C@H]1CC[C@]2(O)C(=O)CO` [Cortodoxone], for which the CC50 at 24 h (AC50 (uM) modified / 1000) was above 50 µM.
`CCCCCCCC(=O)CC[C@@H]1[C@@H](C/C=C\CCCC(=O)OC(C)C)[C@@H](O)C[C@H]1O` [Unoprostone isopropyl ester]: half-maximal cytotoxicity (AC50 (uM) modified / 1000) (CC50 at 24 h) was put at 18 µM.
Still for that read-out and setting: next, `CC1(C)OC[C@@H]2O[C@@]3(C(=O)O)OC(C)(C)O[C@H]3[C@@H]2O1` [Dikegulac]: above 90 µM; `CC(C)(C)NCCO` [2-(tert-Butylamino)ethanol]: above 90 µM; `CCCCN(CCCC)CCCC` [Tributylamine]: above 90 µM.
`Cc1ccc2ccccc2n1` [Quinaldine] returned a CC50 at 24 h (AC50 (uM) modified / 1000) above 90 µM.
Same read-out and setting: the result for `CN(C)CCCNCCCN(C)C` [N'-[3-(Dimethylamino)propyl]-N,N-dimethylpropane-1,3-diamine] reads above 90 µM; that for `c1ccc(P(c2ccccc2)c2ccccc2)cc1` [Triphenylphosphine], above 90 µM.
Take `O=C1CCCCC1C1CCCCC1` (stereo not drawn) [1,1'-Bi(cyclohexyl)-2-one]: under “AC50 (uM) modified / 1000”, the CC50 at 24 h is above 90 µM.
Take `C=CCOC(=O)CCCCCCCC` [Allyl nonanoate]: where the note is “AC50 (uM) modified / 1000”, the CC50 at 24 h was above 90 µM.
`CCOC(=O)c1cccnc1` [Ethyl nicotinate]: the CC50 at 24 h (AC50 (uM) modified / 1000) is above 50 µM.
`C=C(C)CCCC(C)CCO` (stereo not drawn) [Rhodinol]: the CC50 at 24 h (AC50 (uM) modified / 1000) is above 90 µM.
Take `ClC1=C(Cl)C2(Cl)C3C(Cl)C=CC3C1(Cl)C2(Cl)Cl` (stereo not drawn) [Heptachlor]: the CC50 at 24 h by setting is: (AC50 (uM) modified / 1000, Tox21_110001=Tox21_201911, viability, 1 nM T3 present, 24 h) 37.8 µM; (AC50 (uM) modified / 1000, Tox21_110001=Tox21_300534, viability, 1 nM T3 present, 24 h) 42.6 µM.
`O=C(O)c1ccc2cc(O)ccc2c1` [6-Hydroxy-2-naphthoic acid] yielded a CC50 at 24 h (AC50 (uM) modified / 1000) above 90 µM.
Where the note is “AC50 (uM) modified / 1000”, `CCCCc1nc2cccnc2n1Cc1ccc(-c2ccccc2-c2nnn[nH]2)cc1` [FR130739] registered a CC50 at 24 h of 55.3 µM.
For the setting “AC50 (uM) modified / 1000”, `ClC(Cl)Cl` [Chloroform] gave a CC50 at 24 h above 90 µM.
Consider `CC(=O)Oc1ccccc1C(=O)O` [Aspirin], for which, for the setting “AC50 (uM) modified / 1000”, the CC50 at 24 h was above 90 µM.
Still for that read-out and setting: next, `c1ccc2c(c1)ccc1ncccc12` [Benzo(f)quinoline]: above 90 µM; `COc1cc(/C=C/C(=O)N2CCN(CC(=O)N3CCCC3)CC2)cc(OC)c1OC` [Cinepazide maleate]: above 50 µM.
Still for that read-out and setting: the result for `CCN(CC)C(C)=O` [Diethylacetamide] reads above 100 µM; that for `CCOC(=O)[C@H](CCc1ccccc1)N[C@@H](C)C(=O)N1C(=O)N(C)C[C@H]1C(=O)O` [Imidapril hydrochloride], above 50 µM.
Same read-out and setting: the result for `CCCCCCCCCC` [Decane] reads above 90 µM.
As for `c1ccc(CCCc2ccccn2)cc1` [2-(3-Phenylpropyl)pyridine], the CC50 at 24 h (AC50 (uM) modified / 1000) was above 90 µM.
In turn, `CCCCOc1ccc(OCCCN2CCOCC2)cc1` [Pramoxine hydrochloride] displayed a CC50 at 24 h (AC50 (uM) modified / 1000) above 20 µM.
As to `CCCCCC/C=C/C=O` [(E)-2-Nonenal], the cytotoxic concentration (CC50) at 24 h (AC50 (uM) modified / 1000) is above 90 µM.
On to `ClC1=C(Cl)C2(Cl)C(CBr)CC1(Cl)C2(Cl)Cl` (stereo not drawn) [Bromociclen], for which the CC50 at 24 h came out at 22.4 µM (AC50 (uM) modified / 1000, Tox21_110001=Tox21_112345, viability, 1 nM T3 present, 24 h) and 36.9 µM (AC50 (uM) modified / 1000, Tox21_110001=Tox21_301856, viability, 1 nM T3 present, 24 h).
Consider `CCCOC(C(=O)OC1CCN(C)CC1)(c1ccccc1)c1ccccc1` [Propiverine hydrochloride], for which it took 14.7 µM to reach half-maximal cytotoxicity (AC50 (uM) modified / 1000) (CC50 at 24 h).
Still for that read-out and setting: next, `CC(N)=O` [Acetamide]: above 200 µM.
Take `O=C(/C=C/c1ccc([N+](=O)[O-])cc1)c1ccccc1` [4-Nitrochalcone]: the CC50 at 24 h (AC50 (uM) modified / 1000) is above 90 µM.
Compound `CC(O)CN(CCN(CC(C)O)CC(C)O)CC(C)O` (stereo not drawn) [N,N,N',N'-Tetrakis(2-Hydroxypropyl)ethylenediamine] returned a CC50 at 24 h (AC50 (uM) modified / 1000) above 90 µM.
Take `O=C1NCN(c2ccccc2)C12CCN(CC1COc3ccccc3O1)CC2` (stereo not drawn) [Spiroxatrine]: it took 36.3 µM to reach half-maximal cytotoxicity (AC50 (uM) modified / 1000) (CC50 at 24 h). This lies in the double-digit micromolar range.
On the same count and under the same terms, the result for `COC(=O)/C=C\C(=O)OC` [Dimethyl maleate] reads above 90 µM.
`NC(=O)N1c2ccccc2C=Cc2ccccc21` [Carbamazepine] returned a CC50 at 24 h (AC50 (uM) modified / 1000) above 90 µM.
Compound `CCCCCCCCCCCCCC(=O)OCC` [Ethyl tetradecanoate] showed a CC50 at 24 h (AC50 (uM) modified / 1000) above 90 µM.
In turn, `CN(C)NC(=O)CCC(=O)O` [Daminozide] gave a CC50 at 24 h (AC50 (uM) modified / 1000, Tox21_110001=Tox21_202199, viability, 1 nM T3 present, 24 h) above 90 µM.
In turn, `CCCCCC(O)/C=C/C=O` (stereo not drawn) [(2E)-4-Hydroxy-2-nonenal] returned a CC50 at 24 h (AC50 (uM) modified / 1000) above 50 µM.
The compound `CCCC=O` [Butyraldehyde] came in with a CC50 at 24 h (AC50 (uM) modified / 1000) above 90 µM.
In the case of `C1CN(CCOCCN2CCOCC2)CCO1` [4,4'-(Oxydiethylene)bis(morpholine)], the CC50 at 24 h (AC50 (uM) modified / 1000) is above 90 µM.
Turning to `C=CC(=O)OCCOc1ccccc1` [2-Phenoxyethyl acrylate], for the setting “AC50 (uM) modified / 1000”, the CC50 at 24 h is above 90 µM.
Regarding `O=c1[nH]c(=O)n([C@H]2C[C@H](O)[C@@H](CO)O2)cc1I` [Idoxuridine], the CC50 at 24 h (AC50 (uM) modified / 1000) was above 20 µM.
Where the note is “AC50 (uM) modified / 1000”, `CCOCCOCCOC(C)=O` [2-(2-Ethoxyethoxy)ethyl acetate] returned a CC50 at 24 h above 90 µM.
`ClC(Br)Br` [Chlorodibromomethane]: the CC50 at 24 h (AC50 (uM) modified / 1000, Tox21_110001=Tox21_200153, viability, 1 nM T3 present, 24 h) was above 90 µM.
`CCCCC1CCC(=O)O1` (stereo not drawn) [4-Octanolide] returned a CC50 at 24 h (AC50 (uM) modified / 1000) above 90 µM.
With `CCOC(=O)COc1ccc2c(c1)C[C@@H](NC[C@H](O)c1cccc(Cl)c1)CC2` [SR58611], the CC50 at 24 h (AC50 (uM) modified / 1000) is 24.3 µM.
Regarding `O=c1[nH]c2ccccc2n1CCCN1CCC(n2c(=O)[nH]c3cc(Cl)ccc32)CC1` [Domperidone], the CC50 at 24 h (AC50 (uM) modified / 1000) was 40.2 µM. This CC50 at 24 h is about 1.7-fold higher than that of the compound before.
The compound `CC(CN(C)C)CN1c2ccccc2S(=O)(=O)c2ccccc21` (stereo not drawn) [Oxomemazine hydrochloride] returned a CC50 at 24 h (AC50 (uM) modified / 1000) of 37.7 µM. This CC50 at 24 h and that of the compound before are within 1.5-fold of each other.
On the same count and under the same terms, next, `OCCCNc1ccccc1` [3-Anilinopropan-1-ol]: above 50 µM.
As for `CCOC(=O)C1OC1c1ccccc1` (stereo not drawn) [Ethyl 3-phenylglycidate], under “AC50 (uM) modified / 1000”, the CC50 at 24 h is above 90 µM.
`C=C(C)[C@H]1CC=C(C)C(=O)C1` [d-Carvone] had a CC50 at 24 h (AC50 (uM) modified / 1000) above 90 µM.
The compound `CN1C(C(=O)Nc2ccccn2)=C(O)c2sc(Cl)cc2S1(=O)=O` [Lornoxicam] displayed a CC50 at 24 h (AC50 (uM) modified / 1000) above 50 µM.
The compound `COCCCOc1cc(C[C@@H](C[C@H](N)[C@@H](O)C[C@H](C(=O)NCC(C)(C)C(N)=O)C(C)C)C(C)C)ccc1OC` [Aliskiren hydrochloride] had a 50% cytotoxic concentration (CC50) at 24 h (AC50 (uM) modified / 1000) above 50 µM.
Still for that read-out and setting: the result for `C=CC(=O)OCCCC` [Butyl acrylate] reads above 90 µM; that for `CN1CCN2c3ccccc3Cc3ccccc3C2C1` (stereo not drawn) [Mianserin], 20.6 µM.
